Data taken from patent publication US11220504B2, “Pyrrolo[3,2-d] pyrimidine derivatives for the treatment of viral infections and other diseases” (JANSSEN SCIENCES IRELAND UNLIMITED COMPANY, priority 2012, dated 2022).

Legend:
[1] = system: interferon-stimulated responsive elements (ISRE); test: Activation of ISRE promoter elements by conditioned media from PBMC (HEK-ISREluc); type: cell-based, human; settings: Homo sapiens; conditioned media from PBMC transferred to HEK-ISREluc cells, 24 hours; lowest effective concentration; read-out: PBMC LEC
Method in brief: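 Human PBMCs (≥2 donors, RPMI + 10% human AB serum, 2×10^5 cells/well) incubated overnight with compound; supernatant transferred to HEK293 cells stably carrying pISRE-Luc for 24 h, then luciferase read. LEC = compound concentration on PBMCs giving luciferase signal at least two-fold above assay SD; recombinant IFN-α-2a standard.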

[2] = biological target: T1, human TLR8 (Homo sapiens, UniProt Q9NR97); test: TLR8 cellular reporter assay (HEK293, NFκB-luc); type: cell-based; settings: HEK293 cells transfected with CMV-TLR8 and NFκB-luc, 6 hours incubation; lowest effective concentration
T1 construct: expressed in transfected cells; host or cells: HEK293 cells, transient transfection with TLR8 plasmid and NFκB-luc plasmid
T1 sequence (Q9NR97 27-1041): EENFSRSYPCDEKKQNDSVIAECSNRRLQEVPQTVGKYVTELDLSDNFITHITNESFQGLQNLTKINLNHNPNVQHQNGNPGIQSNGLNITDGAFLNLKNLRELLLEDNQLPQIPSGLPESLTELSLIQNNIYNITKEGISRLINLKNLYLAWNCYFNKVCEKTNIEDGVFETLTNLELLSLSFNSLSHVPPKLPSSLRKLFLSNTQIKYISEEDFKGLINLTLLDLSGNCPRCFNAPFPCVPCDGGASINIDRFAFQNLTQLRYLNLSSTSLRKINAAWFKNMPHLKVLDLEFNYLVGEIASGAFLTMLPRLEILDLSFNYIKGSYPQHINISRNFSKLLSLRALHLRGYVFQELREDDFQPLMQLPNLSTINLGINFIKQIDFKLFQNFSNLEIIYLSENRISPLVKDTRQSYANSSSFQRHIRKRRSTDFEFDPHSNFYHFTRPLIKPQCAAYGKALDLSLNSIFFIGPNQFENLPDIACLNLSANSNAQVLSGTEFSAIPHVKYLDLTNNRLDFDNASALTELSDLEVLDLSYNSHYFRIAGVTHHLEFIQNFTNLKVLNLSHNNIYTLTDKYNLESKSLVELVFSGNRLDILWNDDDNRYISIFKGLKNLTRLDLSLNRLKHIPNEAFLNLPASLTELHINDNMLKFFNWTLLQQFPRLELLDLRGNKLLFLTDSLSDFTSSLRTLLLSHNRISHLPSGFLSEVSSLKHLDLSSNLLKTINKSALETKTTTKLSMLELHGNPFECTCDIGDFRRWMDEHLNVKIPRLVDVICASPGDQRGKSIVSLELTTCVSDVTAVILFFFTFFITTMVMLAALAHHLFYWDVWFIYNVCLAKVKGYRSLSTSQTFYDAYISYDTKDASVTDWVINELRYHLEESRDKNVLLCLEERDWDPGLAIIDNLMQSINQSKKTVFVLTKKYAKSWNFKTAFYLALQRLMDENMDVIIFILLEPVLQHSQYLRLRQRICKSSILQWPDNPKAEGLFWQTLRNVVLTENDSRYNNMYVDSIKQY
Method in brief: (§1)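 HEK293 cells transiently transfected with receptor expression vector plus NFκB-luciferase reporter, exposed to compound (added in 4% DMSO) for 6 hours at 37° C, 5% CO2. Luciferase activity measured by luminescence; dose-response curves from quadruplicate measurements.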

[3] = biological target: T2, human TLR7 (Homo sapiens, UniProt Q9NYK1); test: TLR7 cellular reporter assay (HEK293, NFκB-luc); type: cell-based; settings: HEK293 cells transfected with CMV-TLR7 and NFκB-luc, 6 hours incubation; lowest effective concentration
T2 construct: expressed in transfected cells; host or cells: HEK293 cells, transient transfection with CMV-TLR7 plasmid and NFκB-luc plasmid
T2 sequence (Q9NYK1 27-1049): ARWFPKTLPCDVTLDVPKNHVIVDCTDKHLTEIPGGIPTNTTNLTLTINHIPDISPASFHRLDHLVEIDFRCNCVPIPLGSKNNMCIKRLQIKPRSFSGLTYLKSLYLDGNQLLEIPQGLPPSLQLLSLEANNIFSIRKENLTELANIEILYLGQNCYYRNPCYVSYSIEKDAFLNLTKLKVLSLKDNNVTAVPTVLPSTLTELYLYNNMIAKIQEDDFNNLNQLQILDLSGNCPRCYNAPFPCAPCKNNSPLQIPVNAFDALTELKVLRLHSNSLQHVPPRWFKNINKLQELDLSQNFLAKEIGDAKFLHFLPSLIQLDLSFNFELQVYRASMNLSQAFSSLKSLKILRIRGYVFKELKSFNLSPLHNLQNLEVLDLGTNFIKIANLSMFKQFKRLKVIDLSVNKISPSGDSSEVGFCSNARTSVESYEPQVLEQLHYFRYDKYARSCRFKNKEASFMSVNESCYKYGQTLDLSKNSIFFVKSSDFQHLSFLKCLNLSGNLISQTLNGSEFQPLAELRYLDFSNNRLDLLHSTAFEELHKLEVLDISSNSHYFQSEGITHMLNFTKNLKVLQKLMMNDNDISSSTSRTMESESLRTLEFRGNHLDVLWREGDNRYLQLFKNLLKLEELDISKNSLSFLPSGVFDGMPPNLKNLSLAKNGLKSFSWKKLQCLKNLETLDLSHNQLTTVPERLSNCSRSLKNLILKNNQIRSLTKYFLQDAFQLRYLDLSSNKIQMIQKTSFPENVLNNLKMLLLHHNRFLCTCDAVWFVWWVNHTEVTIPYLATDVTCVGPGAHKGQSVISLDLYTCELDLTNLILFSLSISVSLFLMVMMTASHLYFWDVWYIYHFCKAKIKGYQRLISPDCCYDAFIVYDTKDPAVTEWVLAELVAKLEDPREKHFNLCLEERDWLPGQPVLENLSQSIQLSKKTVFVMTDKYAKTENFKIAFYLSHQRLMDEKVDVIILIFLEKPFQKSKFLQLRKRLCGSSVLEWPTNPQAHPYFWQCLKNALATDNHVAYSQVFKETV
Method in brief: as §1

Row | SMILES | minimal effective concentration [1] [µM] | TLR8 LEC [2] [µM] | TLR7 LEC [3] [µM]
1 | COc1ccnc(Cn2ccc3nc(N)nc(NCc4cc(C)on4)c32)c1OC [Compound 168] | 0.011 | >25 | 0.09
2 | COc1c(C)cnc(Cn2ccc3nc(N)nc(NCc4cc(C)on4)c32)c1C [Compound 169] | 0.011 | >25 | 0.04
3 | Cc1cc(CNc2nc(N)nc3ccn(Cc4cccc(C(N)=O)n4)c23)no1 [Compound 172] | 0.017 | >25 | 1.40
4 | Cc1nc(CNc2nc(N)nc3ccn(Cc4ccccn4)c23)no1 [Compound 173] | 0.066 | >25 | 0.53
5 | Cc1ccc(Cn2ccc3nc(N)nc(NCc4cc(C)on4)c32)nc1 [Compound 175] | 0.009 | >25 | 0.02
6 | Cc1cc(CNc2nc(N)nc3ccn(Cc4cn(-c5ccccc5)nn4)c23)no1 [Compound 176] | 0.009 | >25 | 0.04
7 | Cc1nc(CNc2nc(N)nc3ccn(Cc4ccccn4)c23)c(C)o1 [Compound 177] | 3.93 | >25 | 8.67
8 | Cc1cc(CNc2nc(N)nc3ccn(Cc4cccc(F)n4)c23)no1 [Compound 178] | 0.014 | >25 | 0.15
9 | COc1ncccc1Cn1ccc2nc(N)nc(NCc3cc(C)on3)c21 [Compound 179] | 0.003 | >25 | 0.02
10 | COc1cc(OC)nc(Cn2ccc3nc(N)nc(NCc4cc(C)on4)c32)n1 [Compound 180] | 0.004 | >25 | 0.01
11 | Cc1cc(CNc2nc(N)nc3ccn(Cc4cc(C)on4)c23)no1 [Compound 181] | 0.015 | 20.2 | 0.06
12 | Cc1cc(CNc2nc(N)nc3ccn(Cc4cc5ccccc5cn4)c23)no1 [Compound 182] | 0.018 | >25 | 0.05
13 | Cc1cc(CNc2nc(N)nc3ccn(Cc4ccc5cccnc5n4)c23)no1 [Compound 183] | 0.009 | >25 | 0.59
14 | Cc1cc(CNc2nc(N)nc3ccn(Cc4ncccc4C)c23)no1 [Compound 185] | 0.018 | >25 | 0.07
15 | Cc1cc(CNc2nc(N)nc3ccn(Cc4ncccn4)c23)no1 [Compound 186] | 0.035 | >25 | 0.14
16 | Cc1cc(CNc2nc(N)nc3ccn(Cc4ccccn4)c23)nn1C [Compound 187] | 0.52 | >25 | 4.78
17 | Cn1cnc(CNc2nc(N)nc3ccn(Cc4ccccn4)c23)c1 [Compound 188] | 0.047 | >25 | 7.62

Row | SMILES | minimal effective concentration [1] [µM] | TLR8 LEC [2] [µM] | TLR7 LEC [3] [µM]
18 | Cc1cc(CNc2nc(N)nc3ccn(Cc4csc(C)n4)c23)no1 [Compound 192] | 0.03 | >25 | 0.07
19 | Cn1cc(CNc2nc(N)nc3ccn(Cc4ccccn4)c23)nn1 [Compound 193] | 0.447 | >25 | 11.3
20 | COc1cccnc1Cn1ccc2nc(N)nc(NCc3noc(C)n3)c21 [Compound 196] | 0.002 | 12.6 | 0.01
21 | Cc1nc(Cn2ccc3nc(N)nc(NC(C)c4ccccn4)c32)cs1 (stereo not drawn) [Compound 197] | 0.04 | >25 | 0.39
22 | CC(C)(O)CCNc1nc(N)nc2ccn(Cc3ccccn3)c12 [Compound 198] | 0.617 | >25 | 8.76
23 | COCCn1ccc2nc(N)nc(NCc3cc(C(C)C)on3)c21 [Compound 199] | 0.032 | 23.5 | 0.60
24 | COCCn1ccc2nc(N)nc(NCc3cc(C4CC4)on3)c21 [Compound 200] | 0.035 | 11.4 | 0.17
25 | COCCn1ccc2nc(N)nc(NC(C)c3cccnc3)c21 (stereo not drawn) [Compound 201] | 0.978 | >25 | 7.30
26 | COCCn1ccc2nc(N)nc(NCc3ccc(C)cn3)c21 [Compound 202] | 0.58 | >25 | 1.61
27 | Cc1nc(CNc2nc(N)nc3ccn(Cc4ncccn4)c23)no1 [Compound 203] | 0.138 | >25 | 1.04
28 | Cc1nc(CNc2nc(N)nc3ccn(Cc4cnccn4)c23)no1 [Compound 204] | 0.188 | >25 | 1.78
29 | COc1ccccc1Cn1ccc2nc(N)nc(NCc3noc(C)n3)c21 [Compound 205] | 0.001 | 7.7 | <0.01
30 | COC[C@H](C)Nc1nc(N)nc2ccn(Cc3csc(C)n3)c12 [Compound 206] | 0.129 | 15 | 0.74
31 | COCc1nc(CNc2nc(N)nc3ccn(Cc4ccccn4)c23)no1 [Compound 208] | 0.402 | >25 | 5.14
32 | COc1cc(OC)nc(Cn2ccc3nc(N)nc(NCc4noc(C)n4)c32)n1 [Compound 209] | 0.008 | >25 | 0.04
33 | COc1cc(OC)nc(Cn2ccc3nc(N)nc(NCc4ncc(C)o4)c32)n1 [Compound 210] | 0.003 | >25 | 0.02
34 | COC[C@H](C)Nc1nc(N)nc2ccn(Cc3ccccn3)c12 [Compound 211] | 0.47 | 22 | 6.94
